Assay results taken from US20160166536A1, “COMBINATION THERAPY FOR THE TREATMENT OF CANCER” (NORTHWESTERN UNIVERSITY, priority 2014, published 2016).

Legend:
Assay type in all cases: cell-based
MDA-MB-231 cells = experiment: MTS proliferation assay, MDA-MB-231 cells on tissue culture plates (2D TCPS); details: 48 h
Protocol: To evaluate the effectiveness of Eribulin and CYC065 in inhibiting tumor cell proliferation of triple-negative breast cancer cells, the breast cancer cell line MDA-MB-231 having the triple-negative phenotype was tested. MDA-MB-231 cells were seeded on tissue culture plates and cultured for ˜18 h. Cells were treated with different doses of either drug [Eribulin (0.1 nM-100 nM); CYC065 (50 nM-1000 nM)] for 48 h. Proliferation was quantified using the MTS assay.
(§1) The ability of a composition including Eribulin and CYC065 to inhibit inhibiting tumor cell proliferation of triple-negative breast cancer cells was evaluated in three different cell lines having the triple-negative phenotype: MDA-MB-231 (FIG. 2A), […] (FIG. 2B) and MDA-MB-436 (FIG. 2C). The cells were seeded on tissue culture plates and cultured for ˜18 h. The cells were then contacted with 300 nM CYC065 alone, 5 nM Eribulin alone or a combination of 300 nM CYC065 and 5 nM Eribulin for 48 h.
MDA-MB-231 cells were seeded on 2D TCPS at 5000 cells/well and cultured for ˜18 h. […] Proliferation was quantified using the MTS assay.
MDA-MB-231, HS-578T and MDA-MB-436 cells lines were seeded on TCPS at 5000 cells/well and cultured for ˜18 h. […] Proliferation was quantified using the MTS assay. […] (N≧4 for all groups.) Data was analyzed using one-way ANOVA and comparison between groups post ANOVA was performed using Tukey HSD test.

HS-578T cells = experiment: MTS proliferation assay, HS-578T cells on TCPS; details: 300 nM CYC065 alone, 5 nM Eribulin alone or their combination, 48 h, FIG. 2B
Protocol: as §1
(§2) MDA-MB-231, HS-578T and MDA-MB-436 cells lines were seeded on TCPS at 5000 cells/well and cultured for ˜18 h. They were then treated with 300 nM CYC065 and 5 nM Eribulin or their combination for 48 h. Proliferation was quantified using the MTS assay. […] (N≧4 for all groups.) Data was analyzed using one-way ANOVA and comparison between groups post ANOVA was performed using Tukey HSD test.

MDA-MB-436 cells = experiment: MTS proliferation assay, MDA-MB-436 cells on TCPS; details: 300 nM CYC065 alone, 5 nM Eribulin alone or their combination, 48 h, FIG. 2C
Protocol: as §1, §2

C=C1C[C@@H]2CC[C@@]34C[C@H]5O[C@H]6[C@@H](O3)[C@H]3O[C@H](CC[C@@H]3O[C@H]6[C@H]5O4)CC(=O)C[C@@H]3[C@@H](OC)[C@@H](C[C@H](O)CN)O[C@H]3C[C@H]3O[C@@H](CC[C@@H]1O2)C[C@@H](C)C3=C [Eribulin, 2-(3-Amino-2-hydroxypropyl)hexacosahydro-3-methoxy-26-methyl-20,27-bis(methylene)11,15-18,21-24,28-triepoxy-7,9-ethano-12,15-methano-9H,15H-furo(3,2-i)furo(2′,3′-5,6) pyrano(4,3-b)(1,4)dioxacyclopentacosin-5-(4H)-one]
inhibition of tumor cell proliferation (MDA-MB-231 cells; 300 nM CYC065 alone, 5 nM Eribulin alone or their combination, FIG. 2A): inhibited tumor cell proliferation
inhibition of cell proliferation, dose response (MDA-MB-231 cells; Eribulin 0.1 nM-100 nM, CYC065 50 nM-1000 nM, FIGS. 1A, 1B): inhibit proliferation in the nM range
inhibition of tumor cell proliferation (HS-578T cells): inhibited tumor cell proliferation
inhibition of tumor cell proliferation (MDA-MB-436 cells): inhibited tumor cell proliferation
